Here are results for 23 molecules from patent US20130203662A1, “Mini-Hepcidin Peptides and Methods of Using Thereof” (priority 2008, published 2013).

Assay [1] deals with C57/B16J mice. As to the kind of experiment: Serum iron assay in mice after peptide administration. Type of assay: in vivo.
Experimental: Serum iron assay. The decrease in serum iron after peptide administration is the principal measure of hepcidin activity. Thus, as provided herein, the hepcidin activity of selected peptides of the present invention were assayed in vivo by measuring serum iron in test subjects. […] Two weeks before the experiment, the mice were switched to a diet containing about 2-4 ppm iron (Harlan Teklad, Indianapolis, Ind.) in order to suppress endogenous hepcidin. Peptide stocks were diluted to desired concentrations in sterile phosphate buffered saline (PBS) or other diluents as described next. […] Mice were sacrificed 4 hours later, blood was collected by cardiac puncture, and serum was separated using MICROTAINER tubes (Becton Dickinson, Franklin Lakes, N.J.). Serum iron was determined by using a colorimetric assay (Diagnostic Chemicals, Oxford, Conn.), which was modified for the microplate format so that 10 μl serum was used per measurement. The results were expressed as the percentage of decrease in serum iron when compared with the average value of serum iron levels in PBS-treated mice.
The target of assay [2] is T1, ferroportin fused to green fluorescent protein (ECR293/Fpn-GFP cells) (Mus musculus, UniProt Q9JHI9).
T1 sequence (Q9JHI9 1-570): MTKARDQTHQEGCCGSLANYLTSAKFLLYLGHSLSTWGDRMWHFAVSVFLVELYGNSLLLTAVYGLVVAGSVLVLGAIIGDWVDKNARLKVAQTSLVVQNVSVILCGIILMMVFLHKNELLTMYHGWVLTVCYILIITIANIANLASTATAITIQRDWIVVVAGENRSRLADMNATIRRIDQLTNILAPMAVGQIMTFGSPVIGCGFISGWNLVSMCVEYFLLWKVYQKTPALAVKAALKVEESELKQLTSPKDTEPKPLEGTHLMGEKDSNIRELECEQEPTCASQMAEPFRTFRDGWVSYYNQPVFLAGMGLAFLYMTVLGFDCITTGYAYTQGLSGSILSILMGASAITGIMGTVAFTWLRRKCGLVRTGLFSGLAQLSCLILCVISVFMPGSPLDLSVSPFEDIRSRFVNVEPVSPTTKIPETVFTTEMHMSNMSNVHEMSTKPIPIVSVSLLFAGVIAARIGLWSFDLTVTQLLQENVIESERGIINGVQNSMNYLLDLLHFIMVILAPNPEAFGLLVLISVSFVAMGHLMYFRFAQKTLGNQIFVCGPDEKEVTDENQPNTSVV
As to the kind of experiment: Flow cytometry of ferroportin-GFP internalization and degradation in ECR293/Fpn-GFP cells. It counts as cell-based. The conditions noted are these: for DC50: read-out: EC50 (the source's name). As for the experimental part:
In vitro activity may be measured by the dose-dependent loss of fluorescence of cells engineered to display ferroportin fused to green fluorescent protein as in Nemeth et al. (2006) Blood 107:328-33. […]
FLOW CYTOMETRY. The activity of peptides of the present invention was measured by flow cytometry as previously described. See Nemeth et al. (2006) Blood 107:328-333, which is herein incorporated by reference. ECR293/Fpn-GFP, a cell line stably transfected with a ponasterone-inducible ferroportin construct tagged at the C-terminus with green fluorescent protein was used. See Nemeth et al. (2004) Science 306:2090-2093, which is herein incorporated by reference. Briefly, the cells were plated on poly-D-lysine coated plates in the presence of 20 μM FAC, with or without 10 μM ponasterone. After 24 hours, ponasterone was washed off, and cells were treated with peptides for 24 hours. Cells were then trypsinized and resuspended at 1×10^6 cells/ml, and the intensity of green fluorescence was analyzed by flow cytometry. […] Cells not induced with ponasterone to express Fpn-GFP were used to establish a gate to exclude background fluorescence. Cells induced with ponasterone, but not treated with any peptides, were used as the positive control. Each peptide was tested over the range of concentrations (0, 0.01, 0.03, 0.1, 0.3, 1, 3 and 10 μM). Each peptide treatment was repeated independently 3 to 6 times.
A general note: Flow cytometry measures light scatter and fluorescence of single cells or particles in a stream.

Setting [3] is: concentration eliciting 50% of maximal loss of fluorescence generated by reference Hep25, 24 hours.
Setting [4] is: flow-cytometry assay of ferroportin-GFP internalization, FIG. 3.

Like-named read-outs stand apart in the source and are kept apart here. Square brackets hold non-standard residues; d marks the D form. Ends that are not written are not given here. Peptide text beside a SMILES is read from it. Bip = N[C@@H](Cc1ccc(-c2ccccc2)cc1)C(=O)O; Dip = N[C@H](C(=O)O)C(c1ccccc1)c1ccccc1; 1Nal = N[C@@H](Cc1cccc2ccccc12)C(=O)O; β3hF = N[C@H](CC(=O)O)Cc1ccccc1; β3hP = O=C(O)C[C@@H]1CCCN1

As to `CCCCCCCCCCCCCCCC(=O)NCCOCCOCCOCCOCCOCCOCCOCCOCCOCCOCCOCCOCCC(=O)N[C@H](Cc1ccccc1)C(=O)N[C@@H](C(=O)N[C@H](CS)C(=O)N[C@@H](C(=O)N1CCC[C@@H]1C(=O)N[C@H](Cc1ccccc1)C(=O)N[C@H](Cc1c[nH]cn1)C(=O)N[C@@H](C(=O)N[C@H](CC(=O)O)C(N)=O)[C@H](C)O)[C@H](C)CC)[C@H](C)CC` [Pr27], the serum iron entry in assay [1] (i.p., 20 nmoles in PBS, 4 hours) is recorded as “serum iron decrease comparable to that caused by i.p. administration of 20 nmoles Hep25”; in assay [1] (i.p., 20 nmoles in liposomal solution, 4 hours), “serum iron decrease similar to that caused by i.p. administration of 20 nmoles Hep25”; in assay [1] (i.p., 200 nmoles in PBS, 4 hours) it was “even greater decrease in serum iron concentrations”; in assay [1] (oral by gavage, 200 nmoles in cremophore EL solution, vs PBS in same formulation), “caused a decrease in serum iron in mice”.
As to DTHFPIAIFC-NH2 [Hep10], the “hepcidin activity of mini-hepcidins relative to Hep25” value in assay [2] (FIG. 3 and FIG. 4) is listed as “quite active”. In assay [2] (setting [3]), the DC50 stood at 100 nM. In addition, in assay [2] (setting [4]), the “potency relative to Hep25 on a mass basis (times less potent)” value is “about 4 times” and the “potency relative to Hep25 on a molar basis (times less potent)” value is recorded as “about 10 times”.
Take `CC[C@H](C)[C@H](NC(=O)[C@@H]1CCCN1C(=O)[C@@H](N)Cc1ccccc1)C(=O)N[C@@H](CS)C(N)=O` [Hep4] (H-FPIC-NH2): in assay [2] (setting [3]), the DC50 is greater than 10000 nM.
Still for that read-out and setting: under `CC[C@H](C)[C@H](NC(=O)[C@H](CS)NC(=O)[C@@H](NC(=O)[C@@H]1CCCN1C(=O)[C@H](Cc1ccccc1)NC(=O)[C@H](Cc1c[nH]cn1)NC(=O)[C@@H](NC(=O)[C@@H](N)CC(=O)O)[C@@H](C)O)[C@@H](C)CC)C(=O)N[C@@H](Cc1ccc(-c2ccccc2)cc1)C(N)=O` [F9Bip] (H-DTHFPICI[Bip]-NH2; N-terminus assumed) stands 150 nM.
For `CC[C@H](C)[C@H](NC(=O)[C@H](CS)NC(=O)[C@@H](NC(=O)[C@@H]1CCCN1C(=O)[C@H](Cc1ccccc1)NC(=O)[C@H](Cc1c[nH]cn1)NC(=O)[C@@H](NC(=O)[C@@H](N)CC(=O)O)[C@@H](C)O)[C@@H](C)CC)C(=O)N[C@H](C(N)=O)C(c1ccccc1)c1ccccc1` [F9Dpa] (H-DTHFPICI[Dip]-NH2), in assay [2] (setting [3]), the DC50 came to 70 nM.
Turning to `CC[C@H](C)[C@H](NC(=O)[C@H](CS)NC(=O)[C@@H](NC(=O)[C@@H]1CCCN1C(=O)[C@H](Cc1ccccc1)NC(=O)[C@H](Cc1c[nH]cn1)NC(=O)[C@@H](NC(=O)[C@@H](N)CC(=O)O)[C@@H](C)O)[C@@H](C)CC)C(=O)N[C@@H](Cc1ccccc1)C(=O)N1CCC[C@@H]1C(=O)N1CCC[C@H]1C(=O)N[C@@H](CCCCN)C(N)=O` [Pr13], the DC50 in assay [2] (setting [3]) is 100 nM.
In assay [2] (setting [3]), `C[C@@H](O)[C@H](NC(=O)[C@@H](N)CC(=O)O)C(=O)N[C@@H](Cc1c[nH]cn1)C(=O)N[C@H](C(=O)N1CCC[C@H]1C(=O)N[C@@H](CCCNC(=N)N)C(=O)N[C@@H](CS)C(=O)N[C@@H](CCCNC(=N)N)C(=O)N[C@H](C(N)=O)C(c1ccccc1)c1ccccc1)C(c1ccccc1)c1ccccc1` [Pr42] (H-DTH[Dip]PRCR[Dip]-NH2; N-terminus assumed) yielded an EC50 of 30 nM.
For HFPICI-NH2 [Hep6], the DC50 in assay [2] (setting [3]) was determined as 1000 nM.
For `CC[C@H](C)[C@H](NC(=O)[C@H](CS)NC(=O)[C@@H](NC(=O)[C@@H]1CCCN1C(=O)[C@H](Cc1ccccc1)NC(=O)[C@H](Cc1c[nH]cn1)NC(=O)[C@@H](NC(=O)[C@@H](N)CC(=O)O)[C@@H](C)O)[C@@H](C)CC)C(=O)N[C@H](CC(=O)N1CCC[C@@H]1C(=O)N1CCC[C@H]1CC(=O)N[C@@H](CCCNC(=N)N)C(N)=O)Cc1ccccc1` [Pr22] (H-DTHFPICI[β3hF][dP][β3hP]R-NH2), the concentration for a half-maximal effect (EC50) in assay [2] (setting [3]) was 600 nM.
In the case of DTHFPISIF-NH2 [Hep9-C7S], in assay [2] (setting [3]), the DC50 is greater than 10000 nM.
For `CC[C@H](C)[C@H](NC(=O)[C@@H](NC(=O)[C@@H](NC(=O)[C@@H]1CCCN1C(=O)[C@H](Cc1ccccc1)NC(=O)[C@H](Cc1c[nH]cn1)NC(=O)[C@@H](NC(=O)[C@@H](N)CC(=O)O)[C@@H](C)O)[C@@H](C)CC)C(C)(C)S)C(=O)N[C@@H](Cc1ccccc1)C(N)=O` [Pen], the DC50 in assay [2] (setting [3]) came to 700 nM.
Same read-out and setting: under `CC[C@H](C)[C@H](NC(=O)[C@H](CS)NC(=O)[C@@H](NC(=O)[C@@H]1CCCN1C(=O)[C@H](Cc1cccc2ccccc12)NC(=O)[C@H](Cc1c[nH]cn1)NC(=O)[C@@H](NC(=O)[C@@H](N)CC(=O)O)[C@@H](C)O)[C@@H](C)CC)C(=O)N[C@@H](Cc1ccccc1)C(N)=O` [F4 1Nal] (H-DTH[1Nal]PICIF-NH2; N-terminus assumed) stands 110 nM; under `CC[C@H](C)[C@H](NC(=O)[C@H](CS)NC(=O)[C@@H](NC(=O)[C@@H]1CCCN1C(=O)[C@H](Cc1ccc(-c2ccccc2)cc1)NC(=O)[C@H](Cc1c[nH]cn1)NC(=O)[C@@H](NC(=O)[C@@H](N)CC(=O)O)[C@@H](C)O)[C@@H](C)CC)C(=O)N[C@@H](Cc1ccccc1)C(N)=O` [F4Bip] (H-DTH[Bip]PICIF-NH2; N-terminus assumed), 150 nM.
In assay [2], `CC[C@H](C)[C@H](NC(=O)[C@H](CS)NC(=O)[C@@H](NC(=O)[C@@H]1CCCN1C(=O)[C@@H](NC(=O)[C@@H](N)CC(=O)O)C(c1ccccc1)c1ccccc1)[C@@H](C)CC)C(=O)N[C@H](C(N)=O)C(c1ccccc1)c1ccccc1` [Pr41] (H-D[Dip]PICI[Dip]-NH2) came in with an EC50 of 300 nM.
With DTHFPIC-NH2 [Hep7], the DC50 in assay [2] (setting [3]) is greater than 10000 nM.
The same measure, in the same setting: to `CC[C@H](C)[C@H](NC(=O)[C@H](CS)NC(=O)[C@@H](NC(=O)[C@@H]1CCCN1C(=O)[C@H](Cc1ccccc1)NC(=O)[C@H](Cc1c[nH]cn1)NC(=O)[C@@H](NC(=O)[C@@H](N)CC(=O)O)[C@@H](C)O)[C@@H](C)CC)C(=O)N[C@H](CC(=O)N1CCC[C@@H]1C(=O)N1CCC[C@H]1CC(=O)N[C@@H](CCCCN)C(N)=O)Cc1ccccc1` [Pr21] (H-DTHFPICI[β3hF][dP][β3hP]K-NH2) belongs 500 nM; to DTHAPICIF-NH2 [Hep9F4A], greater than 3000 nM.
Consider `CC[C@H](C)[C@@H]1NC(=O)[C@@H](NC(=O)[C@@H](NC(=O)[C@@H]2CCCN2C(=O)[C@H](Cc2ccccc2)NC(=O)[C@H](Cc2c[nH]cn2)NC(=O)[C@@H](NC(=O)[C@@H](N)CC(=O)O)[C@@H](C)O)[C@@H](C)CC)CSSC[C@@H](C(=O)N[C@@H](CCCCN)C(=O)N[C@H](C(=O)O)[C@@H](C)O)NC(=O)[C@@H]2CSSC[C@@H]3NC(=O)[C@@H]4CSSC[C@H](NC(=O)[C@H](Cc5ccccc5)NC1=O)C(=O)N[C@@H](CSSC[C@H](NC(=O)[C@H](CCCCN)NC(=O)[C@H](CO)NC(=O)[C@H](CCCNC(=N)N)NC(=O)[C@H](Cc1c[nH]cn1)NC3=O)C(=O)NCC(=O)N[C@@H](CCSC)C(=O)N2)C(=O)NCC(=O)N4` [Hep25, reference compound], for which the DC50 in assay [2] (setting [3]) was found to be 10 nM.
On the same count and under the same terms, under HFPIC-NH2 [Hep5] stands greater than 10000 nM.
Turning to “F4Y: Hep25 with F4 substituted by tyrosine (DTHYPICIFCCGCCHRSKCGMCCKT)”, the “relative hepcidin activity of substitutions in Hep25” value in assay [2] (Hep25 variants, FIG. 1, 2A, 2B) is recorded as “substantial loss of hepcidin activity”.
For DTHFPIAIF-NH2 [Hep9-C7A], the DC50 in assay [2] (setting [3]) is greater than 10000 nM.
For the molecule `CC[C@H](C)[C@H](NC(=O)[C@H](CS)NC(=O)[C@@H](NC(=O)[C@@H]1CCCN1C(=O)[C@H](Cc1ccccc1)NC(=O)[C@H](Cc1c[nH]cn1)NC(=O)[C@@H](NC(=O)[C@@H](N)CC(=O)O)[C@@H](C)O)[C@@H](C)CC)C(=O)N[C@@H](Cc1ccccc1)C(=O)N1CCC[C@H]1CC(=O)N1CCC[C@H]1C(=O)N[C@@H](CCCNC(=N)N)C(N)=O` [Pr16], in assay [2] (setting [3]), the half-maximal effective concentration (EC50) was 50 nM.
With `CC[C@H](C)[C@H](NC(=O)[C@H](CS)NC(=O)[C@@H](NC(=O)[C@@H]1CCCN1C(=O)[C@@H](NC(=O)[C@H](Cc1c[nH]cn1)NC(=O)[C@@H](NC(=O)[C@@H](N)CC(=O)O)[C@@H](C)O)C(c1ccccc1)c1ccccc1)[C@@H](C)CC)C(=O)N[C@@H](Cc1ccccc1)C(N)=O` [F4Dpa] (H-DTH[Dip]PICIF-NH2; N-terminus assumed), in assay [2] (setting [3]), the EC50 was 30 nM.

Broadly, the EC50 is the midpoint of the concentration-response curve.
